The text below walks through data of ChEMBL document CHEMBL1123136, “Difluorostatine- and difluorostatone-containing peptides as potent and specific renin inhibitors” (J Med Chem, 1985).

pIC50: −log10 of the molar value. Non-standard residues stand in square brackets, D forms with d. Residues, ends and D or L forms follow the SMILES beside them. *: point of attachment. Sta = CC(C)C[C@H](N)[C@@H](O)CC(=O)O; NHCH2(2-pyridyl) = c1ccc(CN*)nc1; Boc = CC(C)(C)OC(=O)*

In one experiment the target is T1, Renin (Homo sapiens, UniProt P00797).
T1 sequence (P00797 whole entry): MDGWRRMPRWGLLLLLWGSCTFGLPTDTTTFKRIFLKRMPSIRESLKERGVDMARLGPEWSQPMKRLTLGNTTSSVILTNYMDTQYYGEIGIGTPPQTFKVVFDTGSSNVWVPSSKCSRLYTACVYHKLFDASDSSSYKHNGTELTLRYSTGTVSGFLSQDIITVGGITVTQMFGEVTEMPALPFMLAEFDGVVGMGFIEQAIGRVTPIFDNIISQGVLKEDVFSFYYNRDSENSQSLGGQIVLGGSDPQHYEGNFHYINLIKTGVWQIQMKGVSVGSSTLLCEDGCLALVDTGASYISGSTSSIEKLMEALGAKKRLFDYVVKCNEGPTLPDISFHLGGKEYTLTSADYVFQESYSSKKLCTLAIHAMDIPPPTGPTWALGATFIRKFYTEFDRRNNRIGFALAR
Description: Plasma renin inhibitory activity was evaluated in lyophilized human plasma with 0.1%EDTA. It counts as cell-free.

The target in the next experiment is Pepsin A (Sus scrofa, UniProt P00791). Description: Inhibitory activity was evaluated against pepsin using porcine pepsin (sigma), porcine hemoglobin (sigma) and 0.02 M KCl-HCl buffer (pH 2).
Pepsin A, sequence (P00791 whole entry): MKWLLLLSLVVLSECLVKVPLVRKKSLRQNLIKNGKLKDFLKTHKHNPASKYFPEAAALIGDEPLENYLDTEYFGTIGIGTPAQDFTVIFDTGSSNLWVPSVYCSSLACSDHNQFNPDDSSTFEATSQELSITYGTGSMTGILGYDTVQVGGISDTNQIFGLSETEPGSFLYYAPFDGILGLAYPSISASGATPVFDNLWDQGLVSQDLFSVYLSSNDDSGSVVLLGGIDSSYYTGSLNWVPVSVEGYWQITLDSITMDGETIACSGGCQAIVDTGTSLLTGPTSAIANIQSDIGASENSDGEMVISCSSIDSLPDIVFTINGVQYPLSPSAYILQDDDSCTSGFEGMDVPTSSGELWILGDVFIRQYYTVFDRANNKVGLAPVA
For experiment [1], the target named is T2, Angiotensin-converting enzyme (Oryctolagus cuniculus, UniProt P12822).
T2 sequence (P12822 whole entry): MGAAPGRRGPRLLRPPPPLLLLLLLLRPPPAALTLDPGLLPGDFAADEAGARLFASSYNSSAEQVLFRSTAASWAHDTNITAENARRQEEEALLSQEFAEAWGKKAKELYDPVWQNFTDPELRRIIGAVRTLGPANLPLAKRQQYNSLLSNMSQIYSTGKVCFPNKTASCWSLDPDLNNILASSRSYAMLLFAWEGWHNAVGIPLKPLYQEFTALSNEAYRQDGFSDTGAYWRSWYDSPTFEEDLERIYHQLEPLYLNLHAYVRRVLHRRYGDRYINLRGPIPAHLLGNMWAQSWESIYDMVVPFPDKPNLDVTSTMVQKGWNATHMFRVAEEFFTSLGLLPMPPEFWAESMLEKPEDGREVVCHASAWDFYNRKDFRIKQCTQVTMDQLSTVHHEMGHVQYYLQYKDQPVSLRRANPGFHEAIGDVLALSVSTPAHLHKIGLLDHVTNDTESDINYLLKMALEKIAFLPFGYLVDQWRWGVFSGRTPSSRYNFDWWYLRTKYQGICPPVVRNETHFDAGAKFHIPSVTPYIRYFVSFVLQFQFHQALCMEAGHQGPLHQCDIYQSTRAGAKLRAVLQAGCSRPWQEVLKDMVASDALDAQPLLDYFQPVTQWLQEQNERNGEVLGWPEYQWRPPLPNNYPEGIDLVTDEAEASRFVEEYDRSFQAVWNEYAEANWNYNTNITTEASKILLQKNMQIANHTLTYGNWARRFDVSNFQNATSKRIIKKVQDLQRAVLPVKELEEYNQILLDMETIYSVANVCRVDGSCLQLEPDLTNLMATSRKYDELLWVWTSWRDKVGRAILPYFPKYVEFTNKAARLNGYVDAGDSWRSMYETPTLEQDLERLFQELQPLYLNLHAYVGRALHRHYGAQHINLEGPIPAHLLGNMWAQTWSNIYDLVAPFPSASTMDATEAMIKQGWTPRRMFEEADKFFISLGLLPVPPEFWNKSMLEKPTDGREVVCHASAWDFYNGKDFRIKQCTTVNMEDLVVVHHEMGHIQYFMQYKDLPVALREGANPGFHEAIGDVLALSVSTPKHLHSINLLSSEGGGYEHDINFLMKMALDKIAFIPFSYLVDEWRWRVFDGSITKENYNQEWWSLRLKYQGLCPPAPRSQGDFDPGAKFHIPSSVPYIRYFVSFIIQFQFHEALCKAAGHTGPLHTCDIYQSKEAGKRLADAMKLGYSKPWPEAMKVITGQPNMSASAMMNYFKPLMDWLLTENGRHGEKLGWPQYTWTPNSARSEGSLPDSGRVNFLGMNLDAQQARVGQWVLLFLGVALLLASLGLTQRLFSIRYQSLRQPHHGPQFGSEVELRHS
Description: Inhibitory activity was evaluated against Angiotensin I converting enzyme activity in rabbit.

One may read the pIC50 as the negative decadic logarithm of the IC50, by convention in mol/L. A lower pIC50 goes with a large IC50. Compound `CC[C@H](C)[C@H](NC(=O)C(F)(F)C(=O)[C@H](CC(C)C)NC(=O)[C@H](Cc1c[nH]cn1)NC(=O)[C@H](Cc1ccccc1)NC(=O)OC(C)(C)C)C(=O)NCc1ccccn1` had a negative logarithm of the IC50 (pIC50) at Renin of 9.28.

The compound `CC[C@H](C)[C@H](NC(=O)CC(=O)[C@H](CC(C)C)NC(=O)[C@H](Cc1c[nH]cn1)NC(=O)[C@H](Cc1ccccc1)NC(=O)OC(C)(C)C)C(=O)NCc1ccccn1` had a negative-log IC50 (pIC50) at Renin of 7.47.

On to `CC[C@H](C)[C@H](NC(=O)C(F)(F)[C@H](O)[C@H](CC(C)C)NC(=O)[C@H](Cc1c[nH]cn1)NC(=O)[C@H](Cc1ccccc1)NC(=O)OC(C)(C)C)C(=O)NCc1ccccn1`, for which, at Renin, the pIC50 was 7.92.

`CC[C@H](C)[C@H](NC(=O)C(F)(F)[C@@H](O)[C@H](CC(C)C)NC(=O)[C@H](Cc1c[nH]cn1)NC(=O)[C@H](Cc1ccccc1)NC(=O)OC(C)(C)C)C(=O)NCc1ccccn1` showed a pIC50 on Renin of 6.14.

`CC[C@H](C)[C@H](NC(=O)C[C@H](O)[C@H](CC(C)C)NC(=O)[C@H](Cc1c[nH]cn1)NC(=O)[C@H](Cc1ccccc1)NC(=O)OC(C)(C)C)C(=O)NCc1ccccn1` (Boc-FH[Sta]I-{NHCH2(2-pyridyl)}) showed a pIC50 against Renin of 8.77.

As for `CC(C)CC(=O)N[C@H](C(=O)N[C@H](C(=O)N[C@@H](CC(C)C)[C@@H](O)CC(=O)N[C@@H](C)C(=O)N[C@@H](CC(C)C)[C@@H](O)CC(=O)O)C(C)C)C(C)C` [PEPSTATIN], at Pepsin A, the negative logarithm of the IC50 (pIC50) is 8.00.

In experiment [1], H-PHPFHFFVYK-OH [RIP] showed a pIC50 of 4.92.
